These results are taken from PMC5820243, “Two inhibitors of yeast plasma membrane ATPase 1 (ScPma1p): toward the development of novel antifungal therapies” (Journal of Cheminformatics, 2018).

In this experiment the target is T1, ScPma1p (yeast plasma membrane ATPase 1) (Saccharomyces cerevisiae, UniProt P05030).
T1 construct: gene PMA1
Briefly: cell-free vesicle-based ATP hydrolysis assay (ScPma1p-overexpressing vesicles, phosphate release). It is filed as biochemical.

T1 sequence (P05030 whole entry): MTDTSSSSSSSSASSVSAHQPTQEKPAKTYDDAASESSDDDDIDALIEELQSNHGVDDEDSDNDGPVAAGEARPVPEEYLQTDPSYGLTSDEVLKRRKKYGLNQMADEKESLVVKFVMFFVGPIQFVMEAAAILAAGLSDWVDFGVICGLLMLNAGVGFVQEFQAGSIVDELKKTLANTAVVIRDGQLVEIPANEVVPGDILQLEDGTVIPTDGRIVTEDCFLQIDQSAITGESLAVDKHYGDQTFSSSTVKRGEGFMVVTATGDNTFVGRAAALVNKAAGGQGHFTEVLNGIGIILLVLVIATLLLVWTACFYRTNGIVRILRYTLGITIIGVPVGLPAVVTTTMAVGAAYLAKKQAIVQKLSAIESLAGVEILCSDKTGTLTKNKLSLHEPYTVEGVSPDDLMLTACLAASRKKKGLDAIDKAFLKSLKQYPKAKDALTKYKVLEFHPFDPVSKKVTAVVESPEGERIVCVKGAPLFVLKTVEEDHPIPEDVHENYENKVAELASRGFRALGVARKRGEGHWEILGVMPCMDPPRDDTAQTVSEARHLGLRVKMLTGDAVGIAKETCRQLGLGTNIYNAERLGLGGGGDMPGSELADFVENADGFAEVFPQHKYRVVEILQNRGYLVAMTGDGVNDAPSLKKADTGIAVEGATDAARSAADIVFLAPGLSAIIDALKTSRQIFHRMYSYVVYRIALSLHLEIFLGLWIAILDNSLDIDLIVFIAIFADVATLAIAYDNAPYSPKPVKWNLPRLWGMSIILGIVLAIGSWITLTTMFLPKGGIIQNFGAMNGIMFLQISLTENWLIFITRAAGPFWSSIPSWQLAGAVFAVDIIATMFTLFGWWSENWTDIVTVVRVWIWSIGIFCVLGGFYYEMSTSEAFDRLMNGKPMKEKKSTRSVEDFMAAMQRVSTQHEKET

Turning to `Cn1ncc2c(Nc3cccc(Cl)c3)nc(Nc3cccc(Cl)c3)nc21` [NSC11668, 4-N,6-N-bis(3-chlorophenyl)-1-methylpyrazolo[3,4-d]pyrimidine-4,6-diamine], the IC50 was found to be 4.4 µM.
